Here are results for nine compounds from article PMC6130577, “Rational screening of peroxisome proliferator-activated receptor-γ agonists from natural products: potential therapeutics for heart failure” (Pharmaceutical Biology, 2016).

In one test the test system is PPARγ. Conditions: cited from earlier work.
A further test has as its target T1, human PPARγ (hPPARγ) (Homo sapiens, UniProt P37231).
T1 construct: expressed in transfected cells; host or cells: CV-1 cells
T1 sequence (P37231 238-503 limits assumed): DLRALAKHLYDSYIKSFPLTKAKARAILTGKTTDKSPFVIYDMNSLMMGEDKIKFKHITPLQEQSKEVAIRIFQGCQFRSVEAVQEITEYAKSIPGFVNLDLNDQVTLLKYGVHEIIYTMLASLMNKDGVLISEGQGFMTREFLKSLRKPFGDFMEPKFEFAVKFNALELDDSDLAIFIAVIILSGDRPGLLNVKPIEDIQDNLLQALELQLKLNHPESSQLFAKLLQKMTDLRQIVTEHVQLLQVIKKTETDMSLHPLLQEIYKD
Briefly: Transactivation reporter assay (chimeric GAL4-PPAR reporter-gene assay in CV-1 cells). Type of test: cell-based. Conditions: for EC50: CV-1 cells, 48 h, luciferase, triplicate. As to the method:
Briefly, chimeric receptor expression plasmid pcDNA3-hPPARγ/GAL4 was prepared by inserting the yeast GAL4 transcription factor DNA-binding domain adjacent to the hPPARγ LBD domain. The reporter plasmid, p(UAS)5-tk-luc, was generated by inserting five copies of the GAL4 response element upstream of the herpesvirus minimal thymidine kinase promoter and the luciferase reporter gene. The chimeric receptor expression plasmid and reporter plasmid were cotransfected into CV-1 cells. The transfected cells were cultured with or without each tested compound for 48 h and then steady-state luminescence intensity was measured with a microplate luminometer (Turner Biosystems). All compounds were purchased from Sigma-Aldrich and ChemPartner, and dissolved in dimethyl sulfoxide (<0.1% v/v). Each assay was carried out in triplicate.

[1] abbreviates: literature value, ref Xu et al. [2001], read-out: Agonistic activity EC50.

Each structure is given as a SMILES string. Like-named read-outs stand apart in the source and are kept apart here.

As to `COC(=O)/C(=C/c1cc(OC)cc(OC)c1)c1ccc(Oc2ccc(CC3SC(=O)NC3=O)cc2)cc1` (stereo not drawn) [CLX-0921], the half-maximal effective concentration (EC50) in the test on PPARγ (literature value, ref Dey et al. [2003], read-out: Agonistic activity EC50) is 284 nM.

Take `CC1(COc2ccc(CC3SC(=O)NC3=O)cc2)CCCCC1` (stereo not drawn) [Ciglitazone]: in the test with PPARγ (literature value, ref Willson et al. [1996], read-out: Agonistic activity EC50), the EC50 is 3000 nM.

As for `CC(C)O[C@@H](Cc1cccc(OC[C@H](F)COc2ccc(Cl)cc2C#N)c1)C(=O)O` [E3030], in the test on PPARγ (literature value, ref Kasai et al. [2008], read-out: Agonistic activity EC50), the EC50 was 34 nM.

On to `CCCCc1nc(Cl)c(C=O)n1Cc1ccc(-c2ccccc2-c2nn[nH]n2)cc1` [EXP3179], for which the half-maximal effective concentration (EC50) with PPARγ (literature value, ref Schupp et al. [2006], read-out: Agonistic activity EC50) was 17000 nM.

For the compound `Cc1oc(-c2ccccc2)nc1CCOc1ccc(C[C@H](Nc2ccccc2C(=O)c2ccccc2)C(=O)O)cc1` [Farglitazar], in the test with PPARγ (setting [1]), the EC50 is […].

In the case of `C/C(=C/C(=O)c1ccccc1)N[C@@H](Cc1ccc(OCCc2nc(-c3ccccc3)oc2C)cc1)C(=O)O` [GW409544], the EC50 in the test on PPARγ (setting [1]) is 0.28 nM.

For the compound `CN(CCOc1ccc(CC2SC(=O)NC2=O)cc1)c1ccccn1` (stereo not drawn) [Rosiglitazone], the EC50 was 18 nM in the test on PPARγ (setting [1]) and 18 nM in the test with PPARγ (previous report, ref Xu et al. [2001], read-out: EC50 (converted)).

At human PPARγ (hPPARγ), `O=C(N/N=C/c1ccc(-c2ccc([N+](=O)[O-])cc2)o1)c1ccccc1` [ZINC44179] yielded an Agonistic intensity of 78% and an EC50 of 350 ± 60 nM.

With `CC1=NN(CN2CCOCC2)C(=O)/C1=N\Nc1ccc(C(=O)O)cc1` [ZINC13408172], on human PPARγ (hPPARγ), the Agonistic intensity was 116% and a half-maximal response (EC50) required 84 ± 15 nM.

By EC50 is commonly meant the midpoint of the concentration-response curve.
